Experimental data as given in patent publication US11178873B2, “Cyclic N-carboxamide compounds useful as herbicides” (FMC CORPORATION, priority 2015, dated 2021).

Key:
Format in all cases: in vivo
[1] = system: barnyardgrass (Echinochloa crus-galli); experiment: Test B flooded paddy test, barnyardgrass; conditions: Flood, scale 0 to 100 (0 no effect, 100 complete control), 13 to 15 d
Protocol: (§1) Plant species in the flooded paddy test selected from rice (Oryza sativa), sedge, umbrella (small-flower umbrella sedge, Cyperus difformis), ducksalad (Heteranthera limosa), and barnyardgrass (Echinochloa crus-galli) were grown to the 2-leaf stage for testing. At time of treatment, test pots were flooded to 3 cm above the soil surface, treated by application of test compounds directly to the paddy water, and then maintained at that water depth for the duration of the test. Treated plants and controls were maintained in a greenhouse for 13 to 15 d, after which time all species were compared to controls and visually evaluated. Plant response ratings, summarized in Table B, are based on a scale of 0 to 100 where 0 is no effect and 100 is complete control. A dash (-) response means no test result.

[2] = system: barnyardgrass (Echinochloa crus-galli); experiment: Test A preemergence, barnyardgrass; conditions: 0 to 100 scale, 0 no effect, 100 complete control
Excerpt: (§2) Seeds of plant species selected from barnyardgrass (Echinochloa crus-galli), crabgrass, large (large crabgrass, Digitaria sanguinalis), kochia (Kochia scoparia), ragweed (common ragweed, Ambrosia elatior), morningglory (Ipomoea spp.), velvetleaf (Abutilon theophrasti), ryegrass, Italian (Italian ryegrass, Lolium multiflorum), foxtail, giant (giant foxtail, Setaria faberii), wheat (Triticum aestivum), corn (Zea mays), and pigweed (Amaranthus retroflexus), were planted into a blend of loam soil and sand and treated preemergence with a directed soil spray using test chemicals formulated in a non-phytotoxic solvent mixture which included a surfactant. At the same time, plants selected from these crop and weed species and also blackgrass (Alopecurus myosuroides), and galium (catchweed bedstraw, Galium aparine), were planted in pots containing the same blend of loam soil and sand and treated with postemergence applications of test chemicals formulated in the same manner. Plants ranged in height from 2 to 10 cm and were in the one- to two-leaf stage for the postemergence treatment. Treated plants and untreated controls were maintained in a greenhouse for approximately 10 d, after which time all treated plants were compared to untreated controls and visually evaluated for injury. Plant response ratings, summarized in Table A, are based on a 0 to 100 scale where 0 is no effect and 100 is complete control. A dash (-) response means no test result.

[3] = system: ragweed (common ragweed, Ambrosia elatior); experiment: Test A preemergence, ragweed; conditions: 0 to 100 scale, 0 no effect, 100 complete control
Excerpt: as §2

[4] = system: foxtail, giant (giant foxtail, Setaria faberii); experiment: Test A postemergence, foxtail, giant; conditions: 0 to 100 scale, 0 no effect, 100 complete control
Excerpt: as §2

[5] = system: blackgrass (Alopecurus myosuroides); experiment: Test A postemergence, blackgrass; conditions: 0 to 100 scale, 0 no effect, 100 complete control
Excerpt: as §2

[6] = system: pigweed (Amaranthus retroflexus); experiment: Test A postemergence, pigweed; conditions: 0 to 100 scale, 0 no effect, 100 complete control
Excerpt: as §2

[7] = system: corn (Zea mays); experiment: Test A postemergence, corn; conditions: 0 to 100 scale, 0 no effect, 100 complete control
Excerpt: as §2

[8] = system: wheat (Triticum aestivum); experiment: Test A postemergence, wheat; conditions: 0 to 100 scale, 0 no effect, 100 complete control
Excerpt: as §2

[9] = system: ryegrass, Italian (Italian ryegrass, Lolium multiflorum); experiment: Test A postemergence, ryegrass, Italian; conditions: 0 to 100 scale, 0 no effect, 100 complete control
Excerpt: as §2

[10] = system: ducksalad (Heteranthera limosa); experiment: Test B flooded paddy test, ducksalad; conditions: Flood, scale 0 to 100 (0 no effect, 100 complete control), 13 to 15 d
Protocol: as §1

[11] = system: kochia (Kochia scoparia); experiment: Test A preemergence, kochia; conditions: 0 to 100 scale, 0 no effect, 100 complete control
Excerpt: as §2

[12] = system: ryegrass, Italian (Italian ryegrass, Lolium multiflorum); experiment: Test A preemergence, ryegrass, Italian; conditions: 0 to 100 scale, 0 no effect, 100 complete control
Excerpt: as §2

[13] = system: rice (Oryza sativa); experiment: Test B flooded paddy test, rice; conditions: Flood, scale 0 to 100 (0 no effect, 100 complete control), 13 to 15 d
Protocol: as §1

[14] = system: galium (catchweed bedstraw, Galium aparine); experiment: Test A postemergence, galium; conditions: 0 to 100 scale, 0 no effect, 100 complete control
Excerpt: as §2

[15] = system: foxtail, giant (giant foxtail, Setaria faberii); experiment: Test A preemergence, foxtail, giant; conditions: 0 to 100 scale, 0 no effect, 100 complete control
Excerpt: as §2

[16] = system: kochia (Kochia scoparia); experiment: Test A postemergence, kochia; conditions: 0 to 100 scale, 0 no effect, 100 complete control
Excerpt: as §2

[17] = system: barnyardgrass (Echinochloa crus-galli); experiment: Test A postemergence, barnyardgrass; conditions: 0 to 100 scale, 0 no effect, 100 complete control
Excerpt: as §2

[18] = system: ragweed (common ragweed, Ambrosia elatior); experiment: Test A postemergence, ragweed; conditions: 0 to 100 scale, 0 no effect, 100 complete control
Excerpt: as §2

[19] = system: pigweed (Amaranthus retroflexus); experiment: Test A preemergence, pigweed; conditions: 0 to 100 scale, 0 no effect, 100 complete control
Excerpt: as §2

[20] = system: sedge, umbrella (small-flower umbrella sedge, Cyperus difformis); experiment: Test B flooded paddy test, sedge, umbrella; conditions: Flood, scale 0 to 100 (0 no effect, 100 complete control), 13 to 15 d
Protocol: as §1

SMILES	Plant response rating, Barnyardgrass ([1]; 250 g ai/ha)	Plant response rating, Barnyardgrass ([2]; 31 g ai/ha)	Plant response rating, Barnyardgrass ([2]; 125 g ai/ha)	Plant response rating, Ragweed ([3]; 31 g ai/ha)	Plant response rating, Ragweed ([3]; 125 g ai/ha)	Plant response rating, Foxtail, Giant ([4]; 31 g ai/ha)	Plant response rating, Foxtail, Giant ([4]; 125 g ai/ha)	Plant response rating, Blackgrass ([5]; 125 g ai/ha)	Plant response rating, Pigweed ([6]; 125 g ai/ha)	Plant response rating, Corn ([7]; 125 g ai/ha)	Plant response rating, Wheat ([8]; 125 g ai/ha)	Plant response rating, Ryegrass, Italian ([9]; 125 g ai/ha)	Plant response rating, Kochia ([11]; 125 g ai/ha)	Plant response rating, Ryegrass, Italian ([12]; 125 g ai/ha)	Plant response rating, Galium ([14]; 125 g ai/ha)	Plant response rating, Foxtail, Giant ([15]; 125 g ai/ha)	Plant response rating, Kochia ([16]; 125 g ai/ha)	Plant response rating, Barnyardgrass ([17]; 125 g ai/ha)	Plant response rating, Ragweed ([18]; 125 g ai/ha)	Plant response rating, Pigweed ([19]; 125 g ai/ha)	further results
CN1CC(c2ccc(C(F)(F)F)cc2)N(C(=O)Nc2ccccc2F)C1=O (stereo not drawn) [Compound 13]	10	0	0	0	0	0	0	0	0	0	0	0	0	0	0	0	0	0	0	0	Plant response rating, Blackgrass ([5]; 31 g ai/ha): 0; Plant response rating, Pigweed ([6]; 31 g ai/ha): 0; Plant response rating, Corn ([7]; 31 g ai/ha): 0; Plant response rating, Wheat ([8]; 31 g ai/ha): 0; Plant response rating, Ryegrass, Italian ([9]; 31 g ai/ha): 0; Plant response rating, Ducksalad ([10]; 250 g ai/ha): 70; Plant response rating, Kochia ([11]; 31 g ai/ha): 0; Plant response rating, Ryegrass, Italian ([12]; 31 g ai/ha): 0; Plant response rating, Rice ([13]; 250 g ai/ha): 0; Plant response rating, Galium ([14]; 31 g ai/ha): 0; Plant response rating, Foxtail, Giant ([15]; 31 g ai/ha): 0; Plant response rating, Kochia ([16]; 31 g ai/ha): 0; Plant response rating, Barnyardgrass ([17]; 31 g ai/ha): 0; Plant response rating, Ragweed ([18]; 31 g ai/ha): 0; Plant response rating, Pigweed ([19]; 31 g ai/ha): 0; Plant response rating, Sedge, Umbrella ([20]; 250 g ai/ha): 0
O=C1NCC(c2ccc(F)c(F)c2)N1C(=O)Nc1ccccc1C(F)(F)F (stereo not drawn) [Compound 10]	–	–	0	–	0	–	0	0	0	0	0	0	0	0	0	20	0	0	0	0	Plant response rating, Barnyardgrass ([1]; 500 g ai/ha): 0; Plant response rating, Barnyardgrass ([2]; 500 g ai/ha): 0; Plant response rating, Ragweed ([3]; 500 g ai/ha): 0; Plant response rating, Foxtail, Giant ([4]; 500 g ai/ha): 40; Plant response rating, Blackgrass ([5]; 500 g ai/ha): 0; Plant response rating, Pigweed ([6]; 500 g ai/ha): 0; Plant response rating, Corn ([7]; 500 g ai/ha): 0; Plant response rating, Wheat ([8]; 500 g ai/ha): 0; Plant response rating, Ryegrass, Italian ([9]; 500 g ai/ha): 0; Plant response rating, Ducksalad ([10]; 500 g ai/ha): 0; Plant response rating, Kochia ([11]; 500 g ai/ha): 0; Plant response rating, Ryegrass, Italian ([12]; 500 g ai/ha): 0; Plant response rating, Rice ([13]; 500 g ai/ha): 0; Plant response rating, Galium ([14]; 500 g ai/ha): 0; Plant response rating, Foxtail, Giant ([15]; 500 g ai/ha): 60; Plant response rating, Kochia ([16]; 500 g ai/ha): 0; Plant response rating, Barnyardgrass ([17]; 500 g ai/ha): 0; Plant response rating, Ragweed ([18]; 500 g ai/ha): 0; Plant response rating, Pigweed ([19]; 500 g ai/ha): 0; Plant response rating, Sedge, Umbrella ([20]; 500 g ai/ha): 0
CN1CC(c2cccc(C(F)(F)F)c2)N(C(=O)Nc2ccc(F)cc2F)C1=O (stereo not drawn) [Compound 17]	0	0	50	0	0	0	10	0	0	0	0	0	20	0	0	80	0	10	0	0	Plant response rating, Blackgrass ([5]; 31 g ai/ha): 0; Plant response rating, Pigweed ([6]; 31 g ai/ha): 0; Plant response rating, Corn ([7]; 31 g ai/ha): 0; Plant response rating, Wheat ([8]; 31 g ai/ha): 0; Plant response rating, Ryegrass, Italian ([9]; 31 g ai/ha): 0; Plant response rating, Ducksalad ([10]; 250 g ai/ha): 40; Plant response rating, Kochia ([11]; 31 g ai/ha): 0; Plant response rating, Ryegrass, Italian ([12]; 31 g ai/ha): 0; Plant response rating, Rice ([13]; 250 g ai/ha): 0; Plant response rating, Galium ([14]; 31 g ai/ha): 0; Plant response rating, Foxtail, Giant ([15]; 31 g ai/ha): 50; Plant response rating, Kochia ([16]; 31 g ai/ha): 0; Plant response rating, Barnyardgrass ([17]; 31 g ai/ha): 0; Plant response rating, Ragweed ([18]; 31 g ai/ha): 0; Plant response rating, Pigweed ([19]; 31 g ai/ha): 0; Plant response rating, Sedge, Umbrella ([20]; 250 g ai/ha): 0
O=C1NCC(c2ccc(F)c(F)c2)N1C(=O)Nc1cccc(F)c1F (stereo not drawn) [Compound 11, N-(2,3-difluorophenyl)-5-(3,4-difluorophenyl)-2-oxo-1-imidazolidinecarboxamide]	–	–	0	–	0	–	0	0	0	0	0	0	0	0	0	0	0	0	0	0	Plant response rating, Barnyardgrass ([1]; 500 g ai/ha): 0; Plant response rating, Barnyardgrass ([2]; 500 g ai/ha): 40; Plant response rating, Ragweed ([3]; 500 g ai/ha): 0; Plant response rating, Foxtail, Giant ([4]; 500 g ai/ha): 30; Plant response rating, Blackgrass ([5]; 500 g ai/ha): 0; Plant response rating, Pigweed ([6]; 500 g ai/ha): 0; Plant response rating, Corn ([7]; 500 g ai/ha): 0; Plant response rating, Wheat ([8]; 500 g ai/ha): 0; Plant response rating, Ryegrass, Italian ([9]; 500 g ai/ha): 0; Plant response rating, Ducksalad ([10]; 500 g ai/ha): 60; Plant response rating, Kochia ([11]; 500 g ai/ha): 30; Plant response rating, Ryegrass, Italian ([12]; 500 g ai/ha): 30; Plant response rating, Rice ([13]; 500 g ai/ha): 0; Plant response rating, Galium ([14]; 500 g ai/ha): 0; Plant response rating, Foxtail, Giant ([15]; 500 g ai/ha): 80; Plant response rating, Kochia ([16]; 500 g ai/ha): 0; Plant response rating, Barnyardgrass ([17]; 500 g ai/ha): 20; Plant response rating, Ragweed ([18]; 500 g ai/ha): 0; Plant response rating, Pigweed ([19]; 500 g ai/ha): 0; Plant response rating, Sedge, Umbrella ([20]; 500 g ai/ha): 0
